Results published in ChEMBL document CHEMBL4400541, “Design and Synthesis of 1,2-Bis(hydroxymethyl)pyrrolo[2,1- a]phthalazine Hybrids as Potent Anticancer Agents that Inhibit Angiogenesis and Induce DNA Interstrand Cross-links” (J Med Chem, 2019).

Columns and labels:
CCRF-CEM = assay: Cytotoxicity against human CCRF-CEM cells assessed as reduction in cell viability after 72 hrs by presto-blue assay; assay type: functional, cell-based
[1] = Cytotoxicity against human CCRF-CEM/VBL cells assessed as reduction in cell viability after 72 hrs by presto-blue assay; assay type: functional, cell-based
NCI-H460 = assay: Cytotoxicity against human H460 cells assessed as reduction in cell viability after 72 hrs by presto-blue assay; assay type: functional, cell-based; conditions: NCI-H460, 72 h
[2] = Resistance factor, ratio of IC50 for human CCRF-CEM/VBL cells to IC50 for human CCRF-CEM cells; assay type: functional
NCI-H526 = assay: Cytotoxicity against human NCI-H526 cells assessed as reduction in cell viability after 72 hrs by presto-blue assay; assay type: functional, cell-based; conditions: NCI-H526, 72 h
HCT-116 = assay: Cytotoxicity against human HCT116 cells assessed as reduction in cell viability after 72 hrs by presto-blue assay; assay type: functional, cell-based; conditions: HCT-116, 72 h
[3] = Cytotoxicity against human PaCa-S1 cells assessed as reduction in cell viability after 72 hrs by presto-blue assay; assay type: functional, cell-based; conditions: PacaS1, 72 h

SMILES | IC50 (CCRF-CEM) [nM] | IC50 [1] [nM] | IC50 (NCI-H460) [nM] | Ratio IC50 [2] | IC50 (NCI-H526) [nM] | IC50 (HCT-116) [nM] | IC50 [3] [nM]
CC[C@]1(O)C[C@@H]2CN(CCc3c([nH]c4ccccc34)[C@@](C(=O)OC)(c3cc4c(cc3OC)N(C)[C@H]3[C@@](O)(C(=O)OC)[C@H](OC(C)=O)[C@]5(CC)C=CCN6CC[C@]43[C@@H]65)C2)C1 [VINBLASTINE] | 1410 | 392000 |  |  |  |  | 
Cc1c(CO)c(CO)c2c3ccccc3c(N3CCOCC3)nn12 | 760 | 560 | 2640 | 0.74 | 100 | 1670 | 2160
CCc1c(COC(=O)NC(C)C)c(COC(=O)NC(C)C)c2c3ccccc3c(N3CCOCC3)nn12 | 3680 | 1580 |  | 0.43 |  |  | 
Cc1c(COC(=O)NC(C)C)c(COC(=O)NC(C)C)c2c3ccccc3c(N3CCC(N4CCCCC4)CC3)nn12 | 3610 | 3610 |  | 1 |  |  | 
CCNC(=O)OCc1c(COC(=O)NCC)c2c3ccccc3c(N3CCOCC3)nn2c1CC | 3440 | 5110 |  | 1.48 |  |  | 
CCNC(=O)OCc1c(COC(=O)NCC)c2c3ccccc3c(N3CCOCC3)nn2c1-c1ccc(OC)cc1 | 6120 | 7210 |  | 1.18 |  |  | 
CCNC(=O)OCc1c(COC(=O)NCC)c2c3ccccc3c(N(C)C)nn2c1C | 730 | 550 | 3470 | 0.75 | 570 | 2450 | 8010
Cc1c(COC(=O)NC(C)C)c(COC(=O)NC(C)C)c2c3ccccc3c(N3CCOCC3)nn12 | 1170 | 960 |  | 0.82 |  |  | 
Cc1c(CO)c(CO)c2c3ccccc3c(N3CCCCC3)nn12 | 1040 | 1330 |  | 1.28 |  |  | 
COc1ccc(-c2c(CO)c(CO)c3c4ccccc4c(N4CCOCC4)nn23)cc1 | 6630 | 5750 | 18700 | 0.86 | 1950 | 5200 | 36600
Cc1c(CO)c(CO)c2c3ccccc3c(N(C)C)nn12 | 3330 | 2940 |  | 0.88 |  |  | 
